Experimental data from ChEMBL document CHEMBL3600382, “A-ring substituted 17β-arylsulfonamides of 17β-aminoestra-1,3,5(10)-trien-3-ol as highly potent reversible inhibitors of steroid sulfatase” (Bioorg Med Chem, 2015).

Tested on: A549
Assay: Cytotoxicity against human A549 cells
Format: functional
Conditions: not given
`C[C@]12CC[C@@H]3c4ccc(O)cc4CC[C@H]3[C@@H]1CC[C@@H]2NS(=O)(=O)c1cccc(C(F)(F)F)c1` gave a GI50 of 1000 nM.

Tested on: SF-268
Assay: Cytotoxicity against human SF268 cells
Format: functional
Conditions: not given
`C[C@]12CC[C@@H]3c4ccc(O)cc4CC[C@H]3[C@@H]1CC[C@@H]2NS(=O)(=O)c1cccc(C(F)(F)F)c1` showed a GI50 of 1000 nM.

Tested on: MDA-MB-468
Assay: Cytotoxicity against human MDA-MB-468 cells
Format: functional
Conditions: not given
`C[C@]12CC[C@@H]3c4ccc(O)cc4CC[C@H]3[C@@H]1CC[C@@H]2NS(=O)(=O)c1cccc(C(F)(F)F)c1` showed a GI50 of 4100 nM.

Tested on: SNB-75
Assay: Cytotoxicity against human SNB75 cells
Format: functional
Conditions: not given
Molecule `C[C@]12CC[C@@H]3c4ccc(O)cc4CC[C@H]3[C@@H]1CC[C@@H]2NS(=O)(=O)c1cccc(C(F)(F)F)c1` has a GI50 of 1000 nM.

Tested on: BT-549
Assay: Cytotoxicity against human BT549 cells
Format: functional
Conditions: not given
With `C[C@]12CC[C@@H]3c4ccc(O)cc4CC[C@H]3[C@@H]1CC[C@@H]2NS(=O)(=O)c1cccc(C(F)(F)F)c1` the GI50 was 2700 nM.

Tested on: T47D
Assay: Cytotoxicity against human T47D cells
Format: functional
Conditions: not given
Work on `C[C@]12CC[C@@H]3c4ccc(O)cc4CC[C@H]3[C@@H]1CC[C@@H]2NS(=O)(=O)c1cccc(C(F)(F)F)c1` yielded a GI50 of 3700 nM.

Tested on: UACC-257
Assay: Cytotoxicity against human UACC257 cells
Format: functional
Conditions: not given
Work on `C[C@]12CC[C@@H]3c4ccc(O)cc4CC[C@H]3[C@@H]1CC[C@@H]2NS(=O)(=O)c1cccc(C(F)(F)F)c1` yielded a GI50 of 1000 nM.

Tested on: PC-3
Assay: Cytotoxicity against human PC3 cells
Format: functional
Conditions: not given
`C[C@]12CC[C@@H]3c4ccc(O)cc4CC[C@H]3[C@@H]1CC[C@@H]2NS(=O)(=O)c1cccc(C(F)(F)F)c1` gave a GI50 of 1000 nM.

Tested on: CCRF-CEM
Assay: Cytotoxicity against human CCRF-CEM cells
Format: functional
Conditions: not given
`C[C@]12CC[C@@H]3c4ccc(O)cc4CC[C@H]3[C@@H]1CC[C@@H]2NS(=O)(=O)c1cccc(C(F)(F)F)c1` gave a GI50 of 1000 nM.

Tested on: SR
Assay: Cytotoxicity against human SR cells
Format: functional
Conditions: not given
For `C[C@]12CC[C@@H]3c4ccc(O)cc4CC[C@H]3[C@@H]1CC[C@@H]2NS(=O)(=O)c1cccc(C(F)(F)F)c1`, the GI50 was 1000 nM.

Tested on: SW-620
Assay: Cytotoxicity against human SW620 cells
Format: functional
Conditions: not given
With `C[C@]12CC[C@@H]3c4ccc(O)cc4CC[C@H]3[C@@H]1CC[C@@H]2NS(=O)(=O)c1cccc(C(F)(F)F)c1` the GI50 was 1000 nM.

Tested on: RPMI-8226
Assay: Cytotoxicity against human RPMI8226 cells
Format: functional
Conditions: not given
Work on `C[C@]12CC[C@@H]3c4ccc(O)cc4CC[C@H]3[C@@H]1CC[C@@H]2NS(=O)(=O)c1cccc(C(F)(F)F)c1` yielded a GI50 of 1000 nM.

Tested on: KM12
Assay: Cytotoxicity against human KM12 cells
Format: functional
Conditions: not given
`C[C@]12CC[C@@H]3c4ccc(O)cc4CC[C@H]3[C@@H]1CC[C@@H]2NS(=O)(=O)c1cccc(C(F)(F)F)c1` showed a GI50 of 1000 nM.

Tested on: COLO 205
Assay: Cytotoxicity against human COLO205 cells
Format: functional
Conditions: not given
Molecule `C[C@]12CC[C@@H]3c4ccc(O)cc4CC[C@H]3[C@@H]1CC[C@@H]2NS(=O)(=O)c1cccc(C(F)(F)F)c1` has a GI50 of 1000 nM.

Tested on: M14
Assay: Cytotoxicity against human M14 cells
Format: functional
Conditions: not given
Work on `C[C@]12CC[C@@H]3c4ccc(O)cc4CC[C@H]3[C@@H]1CC[C@@H]2NS(=O)(=O)c1cccc(C(F)(F)F)c1` yielded a GI50 of 1000 nM.

Tested on: SK-MEL-2
Assay: Cytotoxicity against human SK-MEL-2 cells
Format: functional
Conditions: not given
For `C[C@]12CC[C@@H]3c4ccc(O)cc4CC[C@H]3[C@@H]1CC[C@@H]2NS(=O)(=O)c1cccc(C(F)(F)F)c1`, the GI50 was 1000 nM.

Tested on: U-251
Assay: Cytotoxicity against human U251 cells
Format: functional
Conditions: not given
Work on `C[C@]12CC[C@@H]3c4ccc(O)cc4CC[C@H]3[C@@H]1CC[C@@H]2NS(=O)(=O)c1cccc(C(F)(F)F)c1` yielded a GI50 of 1000 nM.

Tested on: OVCAR-5
Assay: Cytotoxicity against human OVCAR5 cells
Format: functional
Conditions: not given
In the case of `C[C@]12CC[C@@H]3c4ccc(O)cc4CC[C@H]3[C@@H]1CC[C@@H]2NS(=O)(=O)c1cccc(C(F)(F)F)c1`, the GI50 is reported as 1000 nM.

Tested on: SK-MEL-5
Assay: Cytotoxicity against human SK-MEL-5 cells
Format: functional
Conditions: not given
With `C[C@]12CC[C@@H]3c4ccc(O)cc4CC[C@H]3[C@@H]1CC[C@@H]2NS(=O)(=O)c1cccc(C(F)(F)F)c1` the GI50 was 1000 nM.

Tested on: HCC 2998
Assay: Cytotoxicity against human HCC2998 cells
Format: functional
Conditions: not given
`C[C@]12CC[C@@H]3c4ccc(O)cc4CC[C@H]3[C@@H]1CC[C@@H]2NS(=O)(=O)c1cccc(C(F)(F)F)c1` gave a GI50 of 1000 nM.

Tested on: SN12C
Assay: Cytotoxicity against human SN12C cells
Format: functional
Conditions: not given
Work on `C[C@]12CC[C@@H]3c4ccc(O)cc4CC[C@H]3[C@@H]1CC[C@@H]2NS(=O)(=O)c1cccc(C(F)(F)F)c1` yielded a GI50 of 1000 nM.

Tested on: NCI-H23
Assay: Cytotoxicity against human NCI-H23 cells
Format: functional
Conditions: not given
`C[C@]12CC[C@@H]3c4ccc(O)cc4CC[C@H]3[C@@H]1CC[C@@H]2NS(=O)(=O)c1cccc(C(F)(F)F)c1` showed a GI50 of 1000 nM.

Tested on: NCI-H460
Assay: Cytotoxicity against human NCI-H460 cells
Format: functional
Conditions: not given
Molecule `C[C@]12CC[C@@H]3c4ccc(O)cc4CC[C@H]3[C@@H]1CC[C@@H]2NS(=O)(=O)c1cccc(C(F)(F)F)c1` has a GI50 of 1000 nM.

Tested on: MOLT-4
Assay: Cytotoxicity against human MOLT4 cells
Format: functional
Conditions: not given
Work on `C[C@]12CC[C@@H]3c4ccc(O)cc4CC[C@H]3[C@@H]1CC[C@@H]2NS(=O)(=O)c1cccc(C(F)(F)F)c1` yielded a GI50 of 1000 nM.

Tested on: not listed separately
Assay: Cytotoxicity against human EKVX cells
Format: functional
Conditions: not given
In the case of `C[C@]12CC[C@@H]3c4ccc(O)cc4CC[C@H]3[C@@H]1CC[C@@H]2NS(=O)(=O)c1cccc(C(F)(F)F)c1`, the GI50 is reported as 1000 nM.

Tested on: not listed separately
Assay: Cytotoxicity against human NCI-ADR-RES cells
Format: functional
Conditions: not given
`C[C@]12CC[C@@H]3c4ccc(O)cc4CC[C@H]3[C@@H]1CC[C@@H]2NS(=O)(=O)c1cccc(C(F)(F)F)c1` gave a GI50 of 1000 nM.

Tested on: 786-0
Assay: Cytotoxicity against human 786-0 cells
Format: functional
Conditions: not given
Molecule `C[C@]12CC[C@@H]3c4ccc(O)cc4CC[C@H]3[C@@H]1CC[C@@H]2NS(=O)(=O)c1cccc(C(F)(F)F)c1` has a GI50 of 1000 nM.

Tested on: SF-295
Assay: Cytotoxicity against human SF295 cells
Format: functional
Conditions: not given
With `C[C@]12CC[C@@H]3c4ccc(O)cc4CC[C@H]3[C@@H]1CC[C@@H]2NS(=O)(=O)c1cccc(C(F)(F)F)c1` the GI50 was 1000 nM.

Tested on: MDA-MB-435
Assay: Cytotoxicity against human MDA-MB-435 cells
Format: functional
Conditions: not given
`C[C@]12CC[C@@H]3c4ccc(O)cc4CC[C@H]3[C@@H]1CC[C@@H]2NS(=O)(=O)c1cccc(C(F)(F)F)c1` showed a GI50 of 1000 nM.

Tested on: NCI-H226
Assay: Cytotoxicity against human NCI-H226 cells
Format: functional
Conditions: not given
Molecule `C[C@]12CC[C@@H]3c4ccc(O)cc4CC[C@H]3[C@@H]1CC[C@@H]2NS(=O)(=O)c1cccc(C(F)(F)F)c1` has a GI50 of 1000 nM.

Tested on: A498
Assay: Cytotoxicity against human A498 cells
Format: functional
Conditions: not given
`C[C@]12CC[C@@H]3c4ccc(O)cc4CC[C@H]3[C@@H]1CC[C@@H]2NS(=O)(=O)c1cccc(C(F)(F)F)c1` showed a GI50 of 1000 nM.

Tested on: IGROV-1
Assay: Cytotoxicity against human IGROV1 cells
Format: functional
Conditions: not given
`C[C@]12CC[C@@H]3c4ccc(O)cc4CC[C@H]3[C@@H]1CC[C@@H]2NS(=O)(=O)c1cccc(C(F)(F)F)c1` gave a GI50 of 1000 nM.

Tested on: OVCAR-8
Assay: Cytotoxicity against human OVCAR8 cells
Format: functional
Conditions: not given
Molecule `C[C@]12CC[C@@H]3c4ccc(O)cc4CC[C@H]3[C@@H]1CC[C@@H]2NS(=O)(=O)c1cccc(C(F)(F)F)c1` has a GI50 of 1000 nM.

Tested on: OVCAR-3
Assay: Cytotoxicity against human OVCAR3 cells
Format: functional
Conditions: not given
`C[C@]12CC[C@@H]3c4ccc(O)cc4CC[C@H]3[C@@H]1CC[C@@H]2NS(=O)(=O)c1cccc(C(F)(F)F)c1` showed a GI50 of 1000 nM.

Tested on: not listed separately
Assay: Cytotoxicity against human Hs578T cells
Format: functional
Conditions: Hs-578T
With `C[C@]12CC[C@@H]3c4ccc(O)cc4CC[C@H]3[C@@H]1CC[C@@H]2NS(=O)(=O)c1cccc(C(F)(F)F)c1` the GI50 was 3200 nM.

Tested on: LOX IMVI
Assay: Cytotoxicity against human LOXIMVI cells
Format: functional
Conditions: not given
Work on `C[C@]12CC[C@@H]3c4ccc(O)cc4CC[C@H]3[C@@H]1CC[C@@H]2NS(=O)(=O)c1cccc(C(F)(F)F)c1` yielded a GI50 of 1000 nM.

Tested on: HOP-92
Assay: Cytotoxicity against human HOP92 cells
Format: functional
Conditions: not given
`C[C@]12CC[C@@H]3c4ccc(O)cc4CC[C@H]3[C@@H]1CC[C@@H]2NS(=O)(=O)c1cccc(C(F)(F)F)c1` gave a GI50 of 1000 nM.

Tested on: SF-539
Assay: Cytotoxicity against human SF539 cells
Format: functional
Conditions: not given
In the case of `C[C@]12CC[C@@H]3c4ccc(O)cc4CC[C@H]3[C@@H]1CC[C@@H]2NS(=O)(=O)c1cccc(C(F)(F)F)c1`, the GI50 is reported as 1000 nM.

Tested on: TK-10
Assay: Cytotoxicity against human TK10 cells
Format: functional
Conditions: not given
`C[C@]12CC[C@@H]3c4ccc(O)cc4CC[C@H]3[C@@H]1CC[C@@H]2NS(=O)(=O)c1cccc(C(F)(F)F)c1` showed a GI50 of 1000 nM.

Tested on: MCF7
Assay: Cytotoxicity against human MCF7 cells
Format: functional
Conditions: not given
With `C[C@]12CC[C@@H]3c4ccc(O)cc4CC[C@H]3[C@@H]1CC[C@@H]2NS(=O)(=O)c1cccc(C(F)(F)F)c1` the GI50 was 2700 nM.

Tested on: HL-60(TB)
Assay: Cytotoxicity against human HL-60(TB) cells
Format: functional
Conditions: not given
Work on `C[C@]12CC[C@@H]3c4ccc(O)cc4CC[C@H]3[C@@H]1CC[C@@H]2NS(=O)(=O)c1cccc(C(F)(F)F)c1` yielded a GI50 of 1000 nM.

Tested on: MDA-MB-231
Assay: Cytotoxicity against human MDA-MB-231 cells
Format: functional
Conditions: not given
Work on `C[C@]12CC[C@@H]3c4ccc(O)cc4CC[C@H]3[C@@H]1CC[C@@H]2NS(=O)(=O)c1cccc(C(F)(F)F)c1` yielded a GI50 of 2400 nM.

Tested on: CAKI-1
Assay: Cytotoxicity against human Caki1 cells
Format: functional
Conditions: not given
In the case of `C[C@]12CC[C@@H]3c4ccc(O)cc4CC[C@H]3[C@@H]1CC[C@@H]2NS(=O)(=O)c1cccc(C(F)(F)F)c1`, the GI50 is reported as 1000 nM.

Tested on: RXF 393
Assay: Cytotoxicity against human RXF393 cells
Format: functional
Conditions: not given
Work on `C[C@]12CC[C@@H]3c4ccc(O)cc4CC[C@H]3[C@@H]1CC[C@@H]2NS(=O)(=O)c1cccc(C(F)(F)F)c1` yielded a GI50 of 1000 nM.

Tested on: ACHN
Assay: Cytotoxicity against human ACHN cells
Format: functional
Conditions: not given
Molecule `C[C@]12CC[C@@H]3c4ccc(O)cc4CC[C@H]3[C@@H]1CC[C@@H]2NS(=O)(=O)c1cccc(C(F)(F)F)c1` has a GI50 of 1000 nM.

Tested on: SK-OV-3
Assay: Cytotoxicity against human SKOV3 cells
Format: functional
Conditions: not given
With `C[C@]12CC[C@@H]3c4ccc(O)cc4CC[C@H]3[C@@H]1CC[C@@H]2NS(=O)(=O)c1cccc(C(F)(F)F)c1` the GI50 was 1000 nM.

Tested on: UACC-62
Assay: Cytotoxicity against human UACC62 cells
Format: functional
Conditions: not given
Molecule `C[C@]12CC[C@@H]3c4ccc(O)cc4CC[C@H]3[C@@H]1CC[C@@H]2NS(=O)(=O)c1cccc(C(F)(F)F)c1` has a GI50 of 1000 nM.

Tested on: HT-29
Assay: Cytotoxicity against human HT-29 cells
Format: functional
Conditions: not given
With `C[C@]12CC[C@@H]3c4ccc(O)cc4CC[C@H]3[C@@H]1CC[C@@H]2NS(=O)(=O)c1cccc(C(F)(F)F)c1` the GI50 was 1000 nM.
